Legend:
MDA-MB-231 cells = assay: Cancer cell viability assay; format: cell-based
[1] = tested on: UPR markers sXbp1, HSPA5A (BiP), DDIT3 (CHOP) in MDA-MB-231 cells; assay: UPR / ER stress gene induction by qPCR; format: cell-based; details: MDA-MB-231, 6 h, 2 times the EC50, qPCR

In the case of `O=C(CC12CC3CC(CC(C3)C1)C2)NCCCCO` [Compound 4], the “inhibitory effect on cell growth” value (MDA-MB-231 cells; MDA-MB-231 viability assay, negative control) is reported as “negligible inhibitory effects on cell growth” and the “additive or synergistic effect with JMS-053 on viability” value (MDA-MB-231 cells; addition of 20–60 μM 4 to MDA-MB-231 cells treated with JMS-053) is reported as “failed to detect any changes in viability”.

For `N=C1C(=O)NC(=O)c2cc(-c3ccc(OCCCCNC(=O)CC45CC6CC(CC(C6)C4)C5)cc3)sc21` [Compound 7a], the “accumulation of spliced Xbp1 transcription factor” value [1] was “moderate accumulation” and the “expression of pro-apoptotic gene CHOP (DDIT3)” value [1] was “strongly enhanced expression”.

With `O=C(CC12CC3CC(CC(C3)C1)C2)NCCCCOc1ccc(-c2cc3c(s2)C(=O)C(=O)NC3=O)cc1` [Compound 7b] the “accumulation of spliced Xbp1 transcription factor” value [1] was “significantly lower accumulation”.

— PMC8876255 (Bioorganic & medicinal chemistry letters, 2021)
